Source: the NIST ThermoML archive (doi:10.1016/j.jct.2017.03.006)
± gives the expanded uncertainty stated by the source.

Test: xn = mol fraction of the nth substance listed
Conditions: 273.15 K, Liquid, Vibrating tube method

Cc1ccc(C)c(C)c1 [1,2,4-trimethylbenzene] + CCC(C)O
mass density [kg/m3]
Conditions	x2 = 0	x2 = 0.1	x2 = 0.1989	x2 = 0.3011	x2 = 0.4002	x2 = 0.5001	x2 = 0.5997	x2 = 0.6999	x2 = 0.7999	x2 = 0.9
100 kPa	891.7 ± 0.7	885.9 ± 0.7	880.3 ± 0.7	874.4 ± 0.7	868.5 ± 0.7	862.2 ± 0.7	855.4 ± 0.7	847.7 ± 0.7	840.4 ± 0.7	831.5 ± 0.7
1000 kPa	892.3 ± 0.7	886.3 ± 0.7	880.7 ± 0.7	874.7 ± 0.7	868.8 ± 0.7	862.5 ± 0.7	855.9 ± 0.7	848.6 ± 0.7	840.9 ± 0.7	832.2 ± 0.7
2000 kPa	892.9 ± 0.7	886.9 ± 0.7	881.3 ± 0.7	875.4 ± 0.7	869.5 ± 0.7	863.2 ± 0.7	856.6 ± 0.7	849.3 ± 0.7	841.5 ± 0.7	832.9 ± 0.7
5000 kPa	894.6 ± 0.7	888.8 ± 0.7	883.2 ± 0.7	877.3 ± 0.7	871.4 ± 0.7	865.2 ± 0.7	858.5 ± 0.7	851.3 ± 0.7	843.5 ± 0.7	835 ± 0.7
10000 kPa	897.4 ± 0.7	891.8 ± 0.7	886.2 ± 0.7	880.4 ± 0.7	874.5 ± 0.7	868.3 ± 0.7	861.7 ± 0.7	854.5 ± 0.7	846.8 ± 0.7	838.2 ± 0.7
15000 kPa	900.2 ± 0.7	894.6 ± 0.7	889.1 ± 0.7	883.3 ± 0.7	877.4 ± 0.7	871.3 ± 0.7	864.7 ± 0.7	857.6 ± 0.7	849.9 ± 0.7	841.4 ± 0.7
20000 kPa	902.8 ± 0.7	897.4 ± 0.7	891.9 ± 0.7	886.1 ± 0.7	880.4 ± 0.7	874.2 ± 0.7	867.6 ± 0.7	860.5 ± 0.7	852.8 ± 0.7	844.4 ± 0.7
30000 kPa	908 ± 0.7	902.7 ± 0.7	897.3 ± 0.7	891.6 ± 0.7	885.8 ± 0.7	879.7 ± 0.7	873.3 ± 0.7	866.2 ± 0.7	858.6 ± 0.7	850.1 ± 0.7
40000 kPa	912.9 ± 0.7	907.8 ± 0.7	902.4 ± 0.7	896.7 ± 0.7	891.1 ± 0.7	885 ± 0.7	878.5 ± 0.7	871.5 ± 0.8	863.9 ± 0.8	855.6 ± 0.8
50000 kPa	917.5 ± 0.7	912.6 ± 0.7	907.2 ± 0.7	901.6 ± 0.7	896 ± 0.8	890 ± 0.8	883.6 ± 0.8	876.6 ± 0.8	869 ± 0.8	860.7 ± 0.8
60000 kPa	921.9 ± 0.7	–	–	–	–	–	–	–	–	–
